For 33 compounds, IC50 results are on record in patent US9133168B2, “Pyrimidine derivatives, preparation thereof, and pharmaceutical use thereof as akt(pkb) phosphorylation inhibitors” (SANOFI, priority 2010, dated 2015).

The first assay has as its system AKT protein phosphorylated on serine 473 (P-AKT-S473) in PC3 human prostate carcinoma cells. Kind of assay: pAKT expression in PC3 human prostate carcinoma cells, MSD Multi-spot Biomarker detection (Test A). In kind it is cell-based. As to conditions: Homo sapiens, PC-3, PC3 cells, 1 to 2 h incubation, P-AKT-S473, absolute IC50, mean of two independent experiments. The method in brief: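 Lysate pAKT-S473 measured by electrochemiluminescent sandwich immunoassay; inhibition versus cell-free background and DMSO-only wells, IC50 averaged over two experiments.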
In general, IC50 refers to the concentration needed to halve the response being measured. A lower IC50 goes with greater potency in that assay. Consider `O=C(Cc1nc(N2CCOCC2)cc(=O)[nH]1)N1CCc2c(-c3ccccc3F)cccc21` [Example 19d, 2-{2-[4-(2-fluorophenyl)-2,3-dihydro-1H-indol-1-yl]-2-oxoethyl}-6-(morpholin-4-yl)pyrimidin-4(3H)-one], for which inhibition was half-maximal at 23 nM (IC50).

`CN1CCN(Cc2cccc3c2CCN3C(=O)Cc2nc(N3CCOCC3)cc(=O)n2C)CC1` [Example 20d, 3-methyl-2-(2-{4[(4-methylpiperazin-1-yl)methyl]-2,3-dihydro-1H-indol-1-yl}-2-oxoethyl)-6-(morpholin-4-yl)pyrimidin-4(3H)-one] showed an IC50 of 520 nM.

As to `O=C(Cc1nc(N2CCOCC2)cc(=O)[nH]1)N1CC2(CCOCC2)c2ccccc21` [Example 21d, 6-(morpholin-4-yl)-2-[2-oxo-2-(2′,3′,5′,6′-tetrahydrospiro[indole-3,4′-pyran]-1(2H)-yl)ethyl]pyrimidin-4(3H)-one], half-maximal inhibition (IC50) required 155 nM.

In turn, `Cn1c(CC(=O)N2CC3(CCOCC3)c3ccccc32)nc(N2CCOCC2)cc1=O` [Example 22d, 3-methyl-6-(morpholin-4-yl)-2-[2-oxo-2-(2′,3′,5′,6′-tetrahydrospiro[indole-3,4′-pyran]-1(2H)-yl)ethyl]pyrimidin-4(3H)-one] returned an IC50 of 106 nM.

For `Cc1cc(-c2cc(=O)[nH]c(CC(=O)N3CCc4c(F)cccc43)n2)ccn1` [Example 23b, 2-[2-(4-fluoro-2,3-dihydroindol-1-yl)-2-oxoethyl]-6-(2-methylpyridin-4-yl)-3H-pyrimidin-4-one], the IC50 came to 244 nM.

As to `Cn1c(CC(=O)N2CC3(CCNCC3)c3ccccc32)nc(N2CCOCC2)cc1=O` [Example 23d, 3-methyl-6-(morpholin-4-yl)-2-[2-oxo-2-(spiro[indole-3,4′-piperidin]-1(2H)-yl)ethyl]pyrimidin-4(3H)-one], half-maximal inhibition (IC50) was put at 196 nM. The IC50 values of the last two compounds are within 1.5-fold of each other.

On to `O=C(Cc1nc(-c2ccnc(F)c2)cc(=O)[nH]1)N1CCc2c(F)cccc21` [Example 24b, 2-[2-(4-Fluoro-2,3-dihydroindol-1-yl)-2-oxoethyl]-6-(2-fluoropyridin-4-yl)-3H-pyrimidin-4-one], for which the IC50 amounted to 2860 nM.

In the case of `CC1Cc2cc(F)c(F)cc2N1C(=O)Cc1nc(N2CCOCC2)c(F)c(=O)n1C` (stereo not drawn) [Example 26a, 5-fluoro-2-[2-((+)-5,6-difluoro-2-methyl-2,3-dihydroindol-1-yl)-2-oxoethyl]-3-methyl-6-morpholin-4-yl-3H-pyrimidin-4-one], the IC50 amounted to 211 nM.

`CN1CCN(c2cccc3c2CCN3C(=O)Cc2nc(N3CCOCC3)cc(=O)[nH]2)CC1` [Example 26d, 2-{2-[4-(4-methylpiperazin-1-yl)-2,3-dihydro-1H-indol-1-yl]-2-oxoethyl}-6-(morpholin-4-yl)pyrimidin-4(3H)-one] showed an IC50 of 167 nM. The IC50 values of the last two compounds are within 1.5-fold of each other.

On to `CC1CN(c2cc(=O)[nH]c(CC(=O)N3CCc4c(Cl)cccc43)n2)CCO1` (stereo not drawn) [Example 28b, 2-[2-(4-chloro-2,3-dihydroindol-1-yl)-2-oxoethyl]-6-(2-methylmorpholin-4-yl)-3H-pyrimidin-4-one], for which the IC50 is 12 nM.

`CC1Cc2c(Br)cccc2N1C(=O)Cc1nc(N2CCOCC2)c(F)c(=O)n1C` (stereo not drawn) [Example 30a, 5-fluoro-2-[2-((+)-4-bromo-2-methyl-2,3-dihydroindol-1-yl)-2-oxoethyl]-3-methyl-6-morpholin-4-yl-3H-pyrimidin-4-one] had an IC50 of 16 nM. This IC50 and that of the compound before are within 1.5-fold of each other.

The compound `C[C@H]1Cc2ccccc2N1C(=O)Cc1nc(N2CCOC(CF)C2)cc(=O)[nH]1` (stereo partly drawn) [Example 30b, 6-(2-fluoromethylmorpholin-4-yl)-2-[2-((S)-2-methyl-2,3-dihydroindol-1-yl)-2-oxoethyl]-3H-pyrimidin-4-one] had an IC50 of 44 nM.

In the case of `CC1Cc2ccc(F)cc2N1C(=O)Cc1nc(N2CCOCC2)c(F)c(=O)[nH]1` (stereo not drawn) [Example 32a, 5-fluoro-2-[2-((−)-6-fluoro-2-methyl-2,3-dihydroindol-1-yl)-2-oxoethyl]-6-morpholin-4-yl-3H-pyrimidin-4-one], inhibition was half-maximal at 40 nM (IC50).

Take `O=C(Cc1nc(N2CCOCC2)cc(=O)[nH]1)N1CCc2c(N3CCOCC3)cccc21` [Example 33d, 6-(morpholin-4-yl)-2-{2-[4-(morpholin-4-yl)-2,3-dihydro-1H-indol-1-yl]-2-oxoethyl}pyrimidin-4(3H)-one]: 111 nM corresponded to half-maximal inhibition (IC50).

For `CC1Cc2c(ccc(F)c2Cl)N1C(=O)Cc1nc(N2CCOCC2)c(F)c(=O)[nH]1` (stereo not drawn) [Example 34a, 5-Fluoro-2-[2-(4-chloro-5-fluoro-2-methyl-2,3-dihydroindol-1-yl)-2-oxoethyl]-6-morpholin-4-yl-3H-pyrimidin-4-one], the IC50 was determined as 2 nM.

As to `C[C@H]1Cc2ccccc2N1C(=O)Cc1nc(N2CCOCC2)c(Cl)c(=O)[nH]1` [Example 35a, 5-chloro-2-[2-((S)-2-methyl-2,3-dihydroindol-1-yl)-2-oxoethyl]-6-morpholin-4-yl-3H-pyrimidin-4-one], the IC50 amounted to 140 nM.

The assay is the same for the next values; noted with them: PC3 cells, 1 to 2 h incubation, P-AKT-S473, absolute IC50, mean of two independent experiments.
Turning to `C[C@H]1Cc2ccccc2N1C(=O)Cc1nc(N2CCOCC2)cc(=O)[nH]1` [Example 19b, (+)-2-[2-(2-methyl-2,3-dihydroindol-1-yl)-2-oxoethyl]-6-morpholin(D4)-4-yl-3H-pyrimidin-4-one], inhibition was half-maximal at 16 nM (IC50). This counts as double-digit nanomolar.

The compound `CC1Cc2c(ccc(F)c2F)N1C(=O)Cc1nc(N2CCOCC2)c(F)c(=O)[nH]1` (stereo not drawn) [Example 20a, 2-[2-((−)-4,5-difluoro-2-methyl-2,3-dihydroindol-1-yl)-2-oxoethyl]-5-fluoro-6-morpholin-4-yl-3H-pyrimidin-4-one] returned an IC50 of 2 nM.

In turn, `C[C@@H]1Cc2ccccc2N1C(=O)Cc1nc(N2CCOCC2)cc(=O)[nH]1` [Example 20b, (−)-2-[2-(2-methyl-2,3-dihydroindol-1-yl)-2-oxoethyl]-6-(2,2,6,6-morpholin-D4)-4-yl-3H-pyrimidin-4-one] returned an IC50 of 5 nM.

Regarding `CC1Cc2c(ccc(F)c2F)N1C(=O)Cc1nc(N2CCOCC2)c(F)c(=O)[nH]1` (stereo not drawn) [Example 21a, 2-[2-((+)-4,5-difluoro-2-methyl-2,3-dihydroindol-1-yl)-2-oxoethyl]-5-fluoro-6-morpholin-4-yl-3H-pyrimidin-4-one], half-maximal inhibition (IC50) was put at 15 nM.

Take `CC1Cc2cc(F)c(F)cc2N1C(=O)Cc1nc(N2CCOCC2)cc(=O)[nH]1` (stereo not drawn) [Example 21c, 2-{2-[(+)-5,6-difluoro-2-methyl-2,3-dihydro-1H-indol-1-yl]-2-oxoethyl}-6-(morpholin-4-yl)pyrimidin-4(3H)-one]: the IC50 came to 17 nM. The IC50 values of the last two compounds are within 1.5-fold of each other.

In turn, `CC1Cc2c(F)cccc2N1C(=O)Cc1nc(N2CCOCC2)c(F)c(=O)n1C` (stereo not drawn) [Example 22a, 5-fluoro-2-[2-((+)-4-fluoro-2-methyl-2,3-dihydroindol-1-yl)-2-oxoethyl]-3-methyl-6-morpholin-4-yl-3H-pyrimidin-4-one] displayed an IC50 of 98 nM.

Take `CC1Cc2cc(F)c(F)cc2N1C(=O)Cc1nc(N2CCOCC2)cc(=O)[nH]1` (stereo not drawn) [Example 22c]: it took 2 nM to reach half-maximal inhibition (IC50).

For the compound `CC1Cc2c(F)cccc2N1C(=O)Cc1nc(N2CCOCC2)c(F)c(=O)n1C` (stereo not drawn) [Example 23a, 5-fluoro-2-[2-((−)-4-fluoro-2-methyl-2,3-dihydroindol-1-yl)-2-oxoethyl]-3-methyl-6-morpholin-4-yl-3H-pyrimidin-4-one], half-maximal inhibition (IC50) required 203 nM.

In turn, `CC1Cc2cc(F)c(F)cc2N1C(=O)Cc1nc(N2CCOCC2)cc(=O)n1C` (stereo not drawn) [Example 23c, 2-{2-[(−)-5,6-difluoro-2-methyl-2,3-dihydro-1H-indol-1-yl]-2-oxoethyl}-3-methyl-6-(morpholin-4-yl)pyrimidin-4(3H)-one] yielded an IC50 of 32 nM.

For `CC1Cc2c(ccc(F)c2F)N1C(=O)Cc1nc(N2CCOCC2)c(F)c(=O)n1C` (stereo not drawn) [Example 24a, 5-fluoro-2-[2-((−)-4,5-difluoro-2-methyl-2,3-dihydroindol-1-yl)-2-oxoethyl]-3-methyl-6-morpholin-4-yl-3H-pyrimidin-4-one], 310 nM corresponded to half-maximal inhibition (IC50).

The compound `CC1Cc2cc(F)c(F)cc2N1C(=O)Cc1nc(N2CCOCC2)cc(=O)n1C` (stereo not drawn) [Example 24c, 2-{2-[(+)-5,6-difluoro-2-methyl-2,3-dihydro-1H-indol-1-yl]-2-oxoethyl}-3-methyl-6-(morpholin-4-yl)pyrimidin-4(3H)-one] yielded an IC50 of 114 nM. This IC50 is about 2.7-fold lower than that of the compound before.

Compound `CC1Cc2c(ccc(F)c2F)N1C(=O)Cc1nc(N2CCOCC2)c(F)c(=O)n1C` (stereo not drawn) [Example 25a, 5-fluoro-2-[2-((+)-4,5-difluoro-2-methyl-2,3-dihydroindol-1-yl)-2-oxoethyl]-3-methyl-6-morpholin-4-yl-3H-pyrimidin-4-one] came in with an IC50 of 98 nM.

`CC1Cc2cc(F)c(F)cc2N1C(=O)Cc1nc(N2CCOCC2)c(F)c(=O)n1C` (stereo not drawn) [Example 27a, 5-fluoro-2-[2-((−)-5,6-difluoro-2-methyl-2,3-dihydroindol-1-yl)-2-oxoethyl]-3-methyl-6-morpholin-4-yl-3H-pyrimidin-4-one] gave an IC50 of 270 nM.

`CC1Cc2c(Cl)cccc2N1C(=O)Cc1nc(N2CCOCC2)c(F)c(=O)n1C` (stereo not drawn) [Example 28a, 5-fluoro-2-[2-((+)-4-chloro-2-methyl-2,3-dihydroindol-1-yl)-2-oxoethyl]-3-methyl-6-morpholin-4-yl-3H-pyrimidin-4-one] showed an IC50 of 476 nM.

With `CC1Cc2c(Cl)cccc2N1C(=O)Cc1nc(N2CCOCC2)c(F)c(=O)n1C` (stereo not drawn) [Example 29a, 5-fluoro-2-[2-((−)-4-chloro-2-methyl-2,3-dihydroindol-1-yl)-2-oxoethyl]-3-methyl-6-morpholin-4-yl-3H-pyrimidin-4-one], the IC50 turned out to be 20 nM.

`CC1Cc2c(Br)cccc2N1C(=O)Cc1nc(N2CCOCC2)c(F)c(=O)n1C` (stereo not drawn) [Example 31a, 5-fluoro-2-[2-((−)-4-bromo-2-methyl-2,3-dihydroindol-1-yl)-2-oxoethyl]-3-methyl-6-morpholin-4-yl-3H-pyrimidin-4-one] had an IC50 of 15 nM. This IC50 and that of the compound before are within 1.5-fold of each other.

Turning to `CC1Cc2ccc(F)cc2N1C(=O)Cc1nc(N2CCOCC2)c(F)c(=O)[nH]1` (stereo not drawn) [Example 33a, 5-Fluoro-2-[2-((+)-6-fluoro-2-methyl-2,3-dihydroindol-1-yl)-2-oxoethyl]-6-morpholin-4-yl-3H-pyrimidin-4-one], the IC50 was determined as 77 nM.
